The text below walks through data of US12528814B2, “Bifunctional degraders of interleukin-1 receptor-associated kinases and therapeutic use thereof” (NURIX THERAPEUTICS, INC., priority 2020, dated 2026).

Like-named read-outs stand apart in the source and are kept apart here.

For assay [1], the target named is T1, IRAK4 (Homo sapiens (Human), UniProt Q9NWZ3). In words: IRAK4 Biochemical HTRF Kinase Assay. As to conditions: read-out: IRAK4 HTRF biochemical: IC50. The protocol:
IRAK4 Biochemical HTRF Kinase Assay
The binding capacities of certain bifunctional compounds of Formula (I) were determined using the CisBio HTRF KinEASE STK S1 Kit (#62ST1PEB, contains 5× Kinase buffer, 1× Detection Buffer, anti-phospho-serine/threonine-cryptate, Streptavidin-XL665, and STK-S1), which measures the phosphorylation of a biotinylated peptide substrate by IRAK4, according to the manufacturer's protocol. […] 2 μl of a reaction solution containing 5 μM STK-S1, 10 mM ATP, and 10 mM MgCl2 were added to each well to a final volume of 10 μl. Assay controls include wells containing kinase with no compound (DMSO only) and wells containing no kinase and no compound (DMSO only). The reactions were allowed to proceed at ambient temperature for 90 minutes. […] The plates were incubated for 60 minutes at ambient temperature and then read on an Envision Multilabel Reader (PerkinElmer). […] For IC50 determination, the compounds were tested at sixteen concentrations in duplicate and curve-fitting was performed by non-linear regression analysis using GraphPad Priam.
On the technique in general: Time-resolved FRET reads energy transfer from a long-lived donor to a nearby acceptor.
Target sequence in this assay (Q9NWZ3 whole entry, species assumed): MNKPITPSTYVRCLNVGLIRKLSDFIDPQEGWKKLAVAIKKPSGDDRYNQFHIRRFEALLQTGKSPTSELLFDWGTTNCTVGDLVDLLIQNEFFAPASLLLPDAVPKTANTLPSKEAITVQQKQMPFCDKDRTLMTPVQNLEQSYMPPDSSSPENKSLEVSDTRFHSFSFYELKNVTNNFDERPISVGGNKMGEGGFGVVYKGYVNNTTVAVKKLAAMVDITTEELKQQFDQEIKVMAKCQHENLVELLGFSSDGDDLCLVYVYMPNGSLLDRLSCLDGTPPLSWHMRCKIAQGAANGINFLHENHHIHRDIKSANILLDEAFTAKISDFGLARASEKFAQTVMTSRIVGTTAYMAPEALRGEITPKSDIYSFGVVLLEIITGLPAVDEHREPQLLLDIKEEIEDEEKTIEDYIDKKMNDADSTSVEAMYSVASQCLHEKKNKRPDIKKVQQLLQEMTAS

For assay [2], the target named is T1, IRAK4. In words: IRAK4 Degradation HiBiT Assay. The conditions noted are these: HiBiT-tagged Jurkat cells, 4 hrs; for Dmax: Jurkat; for DC50: read-out: Cellular IRAK4 HiBiT: DC50. In general terms: The HiBiT peptide binds its large partner to form an active luciferase.
Target sequence in this assay (Q9NWZ3 whole entry): as the sequence (Q9NWZ3 whole entry, species assumed) above
[3] abbreviates: read-out: Cellular IRAK4 HiBiT: Dmax, Table 4.
The mark [4] stands for this setting: read-out: Cellular IRAK4 HiBiT: Dmax, Table 5, multiple runs.

For orientation: IC50 means the concentration that gives 50% inhibition. Broadly, the Dmax is the greatest extent of degradation seen. What is called DC50 is the midpoint of the concentration-degradation curve. In the case of `CC(C)Nc1cc(-c2ccc3cc(C#N)cnn23)ncc1-c1nnc(N2CCN(C(=O)CCCCCCCNc3ccc4c(c3)C(=O)N(C3CCC(=O)NC3=O)C4=O)CC2)s1` (stereo not drawn) [Example 5, 7-(5-(5-(4-(8-((2-(2,6-dioxopiperidin-3-yl)-1,3-dioxoisoindolin-5-yl)amino)octanoyl)piperazin-1-yl)-1,3,4-thiadiazol-2-yl)-4-(isopropylamino)pyridin-2-yl)pyrrolo[1,2-b]pyridazine-3-carbonitrile], the IC50 was determined as 3.8 nM on IRAK4 [1] (Table 4) and 3.9 nM at IRAK4 [1] (Table 5, multiple runs). For the same molecule, the Dmax on IRAK4 [2] (setting [3]) and at IRAK4 [2] (setting [4]) was 57% throughout. Besides, the DC50 turned out to be 84 nM on IRAK4 [2] (Table 4) and 71.2 nM at IRAK4 [2] (Table 5, multiple runs).

Turning to `CC(C)Nc1cc(-c2ccc3cc(C#N)cnn23)ncc1-c1nnc(N2CCN(C(=O)CCCCCNc3ccc4c(c3)C(=O)N(C3CCC(=O)NC3=O)C4=O)CC2)s1` (stereo not drawn) [Example 6, 7-(5-(5-(4-(6-((2-(2,6-dioxopiperidin-3-yl)-1,3-dioxoisoindolin-5-yl)amino)hexanoyl)piperazin-1-yl)-1,3,4-thiadiazol-2-yl)-4-(isopropylamino)pyridin-2-yl)pyrrolo[1,2-b]pyridazine-3-carbonitrile], the IC50 was found to be 2.6 nM on IRAK4 [1] (Table 4) and 2.6 nM on IRAK4 [1] (Table 5, multiple runs). The Dmax at IRAK4 [2] (setting [3]) was found to be 82%; at IRAK4 [2] (setting [4]) it was 69%. Also, the DC50 on IRAK4 [2] (Table 4) worked out at 74.6 nM; on IRAK4 [2] (Table 5, multiple runs) it was 70 nM.

In the case of `CC(C)Nc1cc(-c2ccc3cc(C#N)cnn23)ncc1-c1nnc(N2CCN(C(=O)CCOCCNc3cccc4c3C(=O)N(C3CCC(=O)NC3=O)C4=O)CC2)s1` (stereo not drawn) [Example 7, 7-(5-(5-(4-(3-(2-((2-(2,6-dioxopiperidin-3-yl)-1,3-dioxoisoindolin-4-yl)amino)ethoxy)propanoyl)piperazin-1-yl)-1,3,4-thiadiazol-2-yl)-4-(isopropylamino)pyridin-2-yl)pyrrolo[1,2-b]pyridazine-3-carbonitrile], the IC50 on IRAK4 [1] (Table 4) was found to be 9.2 nM; at IRAK4 [1] (Table 5, multiple runs) it was 9.2 nM. Besides, the Dmax at IRAK4 [2] (setting [3]) and at IRAK4 [2] (setting [4]) was 39% in each case. The DC50 was 228 nM at IRAK4 [2] (Table 4) and 229 nM on IRAK4 [2] (Table 5, multiple runs).

On to `CC(C)Nc1cc(-c2ccc3cc(C#N)cnn23)ncc1-c1nnc(N2CCN(C(=O)CCCCCCCNc3cccc4c3C(=O)N(C3CCC(=O)NC3=O)C4=O)CC2)s1` (stereo not drawn) [Example 8, 7-(5-(5-(4-(8-((2-(2,6-dioxopiperidin-3-yl)-1,3-dioxoisoindolin-4-yl)amino)octanoyl)piperazin-1-yl)-1,3,4-thiadiazol-2-yl)-4-(isopropylamino)pyridin-2-yl)pyrrolo[1,2-b]pyridazine-3-carbonitrile], for which the IC50 on IRAK4 [1] (Table 4) is 0.8 nM; at IRAK4 [1] (Table 5, multiple runs) it was 0.8 nM. Also, the Dmax at IRAK4 [2] (setting [3]) and at IRAK4 [2] (setting [4]) was 100% each time. For the same molecule, the DC50 on IRAK4 [2] (Table 4) was 53.8 nM; at IRAK4 [2] (Table 5, multiple runs), 53.8 nM.

As for `CC(C)Nc1cc(-c2ccc3cc(C#N)cnn23)ncc1-c1nnc(N2CCN(C(=O)CCCCCNc3cccc4c3C(=O)N(C3CCC(=O)NC3=O)C4=O)CC2)s1` (stereo not drawn) [Example 9, 7-(5-(5-(4-(6-((2-(2,6-dioxopiperidin-3-yl)-1,3-dioxoisoindolin-4-yl)amino)hexanoyl)piperazin-1-yl)-1,3,4-thiadiazol-2-yl)-4-(isopropylamino)pyridin-2-yl)pyrrolo[1,2-b]pyridazine-3-carbonitrile], the IC50 at IRAK4 [1] (Table 4) worked out at 2.9 nM; on IRAK4 [1] (Table 5, multiple runs), 2.9 nM. Moreover, the Dmax at IRAK4 [2] (setting [3]) and on IRAK4 [2] (setting [4]) was 125% throughout. For the same molecule, the DC50 on IRAK4 [2] (Table 4) amounted to 218 nM; on IRAK4 [2] (Table 5, multiple runs), 217 nM.

Take `CC(C)Nc1cc(-c2ccc3cc(C#N)cnn23)ncc1-c1nnc(N2CCN(C(=O)CCOCCNc3ccc4c(c3)C(=O)N(C3CCC(=O)NC3=O)C4=O)CC2)s1` (stereo not drawn) [Example 10, 7-(5-(5-(4-(3-(2-((2-(2,6-dioxopiperidin-3-yl)-1,3-dioxoisoindolin-5-yl)amino)ethoxy)propanoyl)piperazin-1-yl)-1,3,4-thiadiazol-2-yl)-4-(isopropylamino)pyridin-2-yl)pyrrolo[1,2-b]pyridazine-3-carbonitrile]: the IC50 at IRAK4 [1] (Table 4) stood at 1 nM; at IRAK4 [1] (Table 5, multiple runs), 1 nM. Besides, the Dmax on IRAK4 [2] (setting [3]) and on IRAK4 [2] (setting [4]) was 103% in each case. In addition, the DC50 on IRAK4 [2] (Table 4) amounted to 49.1 nM; at IRAK4 [2] (Table 5, multiple runs), 49.1 nM.

Turning to `CC(C)Nc1cc(-c2ccc3cc(C#N)cnn23)ncc1-c1nnc(N2CCN(C(=O)CCOCCOCCOCCNc3cccc4c3C(=O)N(C3CCC(=O)NC3=O)C4=O)CC2)s1` (stereo not drawn) [Example 11, 7-(5-(5-(4-(3-(2-(2-(2-((2-(2,6-dioxopiperidin-3-yl)-1,3-dioxoisoindolin-4-yl)amino)ethoxy)ethoxy)ethoxy)propanoyl)piperazin-1-yl)-1,3,4-thiadiazol-2-yl)-4-(isopropylamino)pyridin-2-yl)pyrrolo[1,2-b]pyridazine-3-carbonitrile], the IC50 at IRAK4 [1] (Table 4) turned out to be 1.3 nM; on IRAK4 [1] (Table 5, multiple runs) it was 1.3 nM. For the same molecule, the Dmax at IRAK4 [2] (setting [3]) and at IRAK4 [2] (setting [4]) was 104% throughout. The DC50 at IRAK4 [2] (Table 4) is 128 nM; at IRAK4 [2] (Table 5, multiple runs), 128 nM.

`CC(C)Nc1cc(-c2ccc3cc(C#N)cnn23)ncc1-c1nnc(N2CCN(C(=O)C3CCN(C[C@H]4CCN(c5ccc6c(c5)C(=O)N(C5CCC(=O)NC5=O)C6=O)C4)CC3)CC2)s1` (stereo partly drawn) [Example 12, 7-(5-(5-(4-(1-(((3R)-1-(2-(2,6-dioxopiperidin-3-yl)-1,3-dioxoisoindolin-5-yl)pyrrolidin-3-yl)methyl)piperidine-4-carbonyl)piperazin-1-yl)-1,3,4-thiadiazol-2-yl)-4-(isopropylamino)pyridin-2-yl)pyrrolo[1,2-b]pyridazine-3-carbonitrile]: the IC50 on IRAK4 [1] (Table 4) is 1.2 nM; on IRAK4 [1] (Table 5, multiple runs), 1.2 nM. Besides, the Dmax at IRAK4 [2] (setting [3]) worked out at 92%; at IRAK4 [2] (setting [4]) it was 91%. Further, the DC50 is 108 nM at IRAK4 [2] (Table 4) and 98.1 nM at IRAK4 [2] (Table 5, multiple runs).

Regarding `CC(C)Nc1cc(-c2ccc3cc(C#N)cnn23)ncc1-c1nnc(N2CCN(C(=O)CCN3CCN(c4ccc5c(c4)C(=O)N(C4CCC(=O)NC4=O)C5=O)CC3)CC2)s1` (stereo not drawn) [Example 14, 7-(5-(5-(4-(3-(4-(2-(2,6-dioxopiperidin-3-yl)-1,3-dioxoisoindolin-5-yl)piperazin-1-yl)propanoyl)piperazin-1-yl)-1,3,4-thiadiazol-2-yl)-4-(isopropylamino)pyridin-2-yl)pyrrolo[1,2-b]pyridazine-3-carbonitrile], the IC50 at IRAK4 [1] (Table 4) is 0.8 nM; at IRAK4 [1] (Table 5, multiple runs) it was 0.8 nM. The Dmax came to 99% at IRAK4 [2] (setting [3]) and 97% at IRAK4 [2] (setting [4]). For the same molecule, the DC50 on IRAK4 [2] (Table 4) turned out to be 42.7 nM; at IRAK4 [2] (Table 5, multiple runs) it was 37.2 nM.

As to `CC(C)Nc1cc(-c2ccc3cc(C#N)cnn23)ncc1-c1nnc(N2CCN(C(=O)CN3CCC4(CC3)CN(c3ccc5c(c3)C(=O)N(C3CCC(=O)NC3=O)C5=O)C4)CC2)s1` (stereo not drawn) [Example 15, 7-(5-(5-(4-(2-(2-(2-(2,6-dioxopiperidin-3-yl)-1,3-dioxoisoindolin-5-yl)-2,7-diazaspiro[3.5]nonan-7-yl)acetyl)piperazin-1-yl)-1,3,4-thiadiazol-2-yl)-4-(isopropylamino)pyridin-2-yl)pyrrolo[1,2-b]pyridazine-3-carbonitrile], the IC50 on IRAK4 [1] (Table 4) worked out at 1 nM; at IRAK4 [1] (Table 5, multiple runs), 1 nM. The Dmax on IRAK4 [2] (setting [3]) turned out to be 81%; on IRAK4 [2] (setting [4]) it was 85%. Moreover, the DC50 on IRAK4 [2] (Table 4) amounted to 82.7 nM; at IRAK4 [2] (Table 5, multiple runs), 86.9 nM.

For `CC(C)Nc1cc(-c2ccc3cc(C#N)cnn23)ncc1-c1nnc(N2CCN(CCC3CCN(c4ccc5c(c4)C(=O)N(C4CCC(=O)NC4=O)C5=O)CC3)CC2)s1` (stereo not drawn) [Example 16, 7-(5-(5-(4-(2-(1-(2-(2,6-dioxopiperidin-3-yl)-1,3-dioxoisoindolin-5-yl)piperidin-4-yl)ethyl)piperazin-1-yl)-1,3,4-thiadiazol-2-yl)-4-(isopropylamino)pyridin-2-yl)pyrrolo[1,2-b]pyridazine-3-carbonitrile], the IC50 at IRAK4 [1] (Table 4) was 1.7 nM; on IRAK4 [1] (Table 5, multiple runs), 1.7 nM. Moreover, the Dmax came out at 62% on IRAK4 [2] (setting [3]) and 53% on IRAK4 [2] (setting [4]). For the same molecule, the DC50 at IRAK4 [2] (Table 4) was 127 nM; on IRAK4 [2] (Table 5, multiple runs) it was 190 nM.

For the molecule `CC(C)Nc1cc(-c2ccc3cc(C#N)cnn23)ncc1-c1nnc(N2CCN(C3CCN(C[C@H]4CCN(c5ccc6c(c5)C(=O)N(C5CCC(=O)NC5=O)C6=O)C4)CC3)CC2)s1` (stereo partly drawn) [Example 17, 7-(5-(5-(4-(1-(((3R)-1-(2-(2,6-dioxopiperidin-3-yl)-1,3-dioxoisoindolin-5-yl)pyrrolidin-3-yl)methyl)piperidin-4-yl)piperazin-1-yl)-1,3,4-thiadiazol-2-yl)-4-(isopropylamino)pyridin-2-yl)pyrrolo[1,2-b]pyridazine-3-carbonitrile], the IC50 stood at 1.4 nM at IRAK4 [1] (Table 4) and 1.4 nM on IRAK4 [1] (Table 5, multiple runs). The Dmax was determined as 69% at IRAK4 [2] (setting [3]) and 77% at IRAK4 [2] (setting [4]). Besides, the DC50 on IRAK4 [2] (Table 4) was 139 nM; at IRAK4 [2] (Table 5, multiple runs), 168 nM.
